Test results reported in patent publication US20110177054A1, “USE OF ENDO-LYSOSOMAL SYSTEM AND SECRETED VESICLES (EXOSOME-LIKE) IN TREATMENTS AND DIAGNOSTICS BASED ON SMALL RNA AND EXPERIMENTAL STUDY OF SMALL RNA” (priority 2008, published 2011).

What was measured:
BIG2 = biological target: T1, BIG2 (Homo sapiens, UniProt Q9Y6D5); test: Exosome release after RNAi of BIG2 (protein in purified exosome pellets); type: cell-based
T1 construct: endogenous in cells; host or cells: Mono-Mac6 monocytic cells
T1 sequence (Q9Y6D5 whole entry): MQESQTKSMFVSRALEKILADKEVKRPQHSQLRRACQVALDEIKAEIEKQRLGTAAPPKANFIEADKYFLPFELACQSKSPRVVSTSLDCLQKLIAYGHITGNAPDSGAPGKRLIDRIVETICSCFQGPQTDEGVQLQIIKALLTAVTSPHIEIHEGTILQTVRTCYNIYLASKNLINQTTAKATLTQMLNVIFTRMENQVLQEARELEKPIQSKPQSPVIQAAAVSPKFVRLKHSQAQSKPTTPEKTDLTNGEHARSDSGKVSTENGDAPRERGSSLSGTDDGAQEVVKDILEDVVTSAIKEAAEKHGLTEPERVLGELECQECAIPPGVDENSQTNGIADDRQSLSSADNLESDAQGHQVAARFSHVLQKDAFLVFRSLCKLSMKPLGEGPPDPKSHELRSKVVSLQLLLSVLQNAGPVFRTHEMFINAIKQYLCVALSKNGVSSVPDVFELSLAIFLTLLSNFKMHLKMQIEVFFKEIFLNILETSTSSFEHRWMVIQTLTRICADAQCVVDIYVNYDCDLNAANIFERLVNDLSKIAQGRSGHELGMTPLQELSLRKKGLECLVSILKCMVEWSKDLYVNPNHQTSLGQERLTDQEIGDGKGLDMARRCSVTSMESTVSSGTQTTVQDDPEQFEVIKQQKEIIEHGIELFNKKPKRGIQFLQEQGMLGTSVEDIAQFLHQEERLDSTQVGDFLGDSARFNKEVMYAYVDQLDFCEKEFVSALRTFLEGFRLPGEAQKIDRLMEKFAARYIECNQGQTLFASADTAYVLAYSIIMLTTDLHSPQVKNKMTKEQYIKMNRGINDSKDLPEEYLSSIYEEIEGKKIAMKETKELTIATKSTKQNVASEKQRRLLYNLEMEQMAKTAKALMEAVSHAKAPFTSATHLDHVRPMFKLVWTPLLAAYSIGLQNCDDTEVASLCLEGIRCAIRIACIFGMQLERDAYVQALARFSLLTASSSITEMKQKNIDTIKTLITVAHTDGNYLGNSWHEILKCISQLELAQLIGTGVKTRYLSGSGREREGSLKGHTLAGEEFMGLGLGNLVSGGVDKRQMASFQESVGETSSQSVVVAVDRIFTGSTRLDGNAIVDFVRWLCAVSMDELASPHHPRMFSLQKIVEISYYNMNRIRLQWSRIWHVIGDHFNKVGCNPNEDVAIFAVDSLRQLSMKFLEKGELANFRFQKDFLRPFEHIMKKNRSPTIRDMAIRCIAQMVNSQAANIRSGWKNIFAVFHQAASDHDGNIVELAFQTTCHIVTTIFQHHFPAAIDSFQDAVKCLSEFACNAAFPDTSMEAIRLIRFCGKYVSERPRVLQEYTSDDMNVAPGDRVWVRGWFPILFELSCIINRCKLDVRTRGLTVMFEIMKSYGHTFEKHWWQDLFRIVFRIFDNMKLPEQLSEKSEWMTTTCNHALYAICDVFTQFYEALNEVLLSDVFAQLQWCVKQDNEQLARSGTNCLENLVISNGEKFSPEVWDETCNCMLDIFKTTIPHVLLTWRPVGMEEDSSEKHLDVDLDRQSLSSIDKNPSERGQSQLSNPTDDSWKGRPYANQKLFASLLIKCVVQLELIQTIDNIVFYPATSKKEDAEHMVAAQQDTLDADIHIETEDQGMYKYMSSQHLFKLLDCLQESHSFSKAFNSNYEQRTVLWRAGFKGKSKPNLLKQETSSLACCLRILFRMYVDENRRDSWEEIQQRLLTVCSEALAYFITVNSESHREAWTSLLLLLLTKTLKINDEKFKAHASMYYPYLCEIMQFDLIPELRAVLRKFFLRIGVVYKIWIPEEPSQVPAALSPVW
Method: FIG. 5: Differential centrifugation enriches exosomes greatly. (A) Western blot of 50 μg of cell or exosome lysate with markers of exosomes (CD63, Tfr R, or Ub). (B) Cell counts and total protein quantitation of exosome pellets 36 h after transfection of cells with siRNA targeting BIG2 or control. (C) Electron microscopy of resuspended exosome pellets after uranyl acetate staining. (D) Dynamic light scattering analysis of purified exosome pellets resuspended in PBS (Phosphate buffered saline). Top graph represents five sets of measurements as size in nm (x-axis) as a function of relative number (y-axis) of particles detected. Bottom graph represents size in nm (x-axis) as a function of volume (y-axis). Measurements by volume exponentially amplify the representation of larger particles present.
FIG. 9: Purified exosomes are enriched in GW182, but not Dcp1a or Ge-1. (a) Equal amounts of proteins from exosomes and cells were analyzed by western blotting for exosome-enriched protein, CD63. Electron microscopy of resuspended exosome pellets. […] Error bars, SEM of five measurements. (c) RNAi of BIG2 reduces the recovery of proteins in exosome preparations (paired t-test, n=4, p=0.0194, a=0.05). […] (d) Equal amounts of proteins from exosomes and whole cells were analyzed by western blotting. […]

[1] = system: miR-K12-4 target reporter; test: Intercellular transfer of miR-K12-4 by exosomes (psiCHECK dual luciferase reporter in target cells); type: cell-based; settings: BIG2 siRNA delivered to exosome producing cells simultaneously with miR-K12-4 or miR-206 plasmids
Method: FIG. 7: exosomes transfer active siRNA and miRNA to target cells in a BIG2-dependent manner. (A) Exosomes purified from cells transfected with GFP siRNA or control siRNA were incubated with cells transfected with GFP. GFP expression was examined 8 hours or 24 hours later by flow cytometry. GFP expression was calculated as 1-(GFP expression GFP siRNA exosomes/GFP expression control siRNA exosomes)×100. (n=3, p<0.05, paired t-test). (B) Exosomes purified from cells transfected with miR-206 or miR-K12-4 were incubated with cells transfected with a target site for miR-K12-4 inserted into the psiCHECK dual luciferase plasmid. Activity of luciferases was measured 8 hours later. Inhibition of Firefly luciferase expression was calculated as: 1-(Firefly luciferase/Renilla luciferase miR-K12-4 exosomes)/(Firefly luciferase/Renilla luciferase miR-206 exosomes)×100. (n=4, p<0.05, paired t-test). Error bars represent standard error of the mean.
FIG. 8: Exosomes mediate transfer of miRNA activity in a BIG2-dependent manner. […] Activity of luciferases was measured after 8 hours (n=4, p=0.0287, t-test, a=0.05). […] GFP expression was measured by FACS analysis after 8 or 24 h (right). […]

Question: For “BIG2 siRNA: siRNA targeting BIG2: CGAUGAAAUUAAAGCAGAA (SEQ ID NO. 11) (listed as RNA, chemistry not given here)”, which “recovery of proteins in exosome preparations” value (BIG2; RNAi of BIG2 vs control, paired t-test n=4 p=0.0194) is on record?
Answer: reduces

Question: What about the “reduction of exosome release / vesicle yield” value (BIG2; siRNA targeting BIG2 vs control siRNA, monocytic cells, transfection efficiency ~50%) of the same substance?
Answer: ~50%

Question: What about the “knockdown of miR-K12-4 reporter expression in target cells by exosomes” value [1] of the same substance?
Answer: inhibited knockdown
